Test results: ChEMBL document CHEMBL5143714, “Discovery of BMS-986339, a Pharmacologically Differentiated Farnesoid X Receptor Agonist for the Treatment of Nonalcoholic Steatohepatitis” (J Med Chem, 2022)

Legend:
[1] = biological target: T1, Bile acid receptor (Homo sapiens) (UniProt Q96RI1); experiment: Agonist activity at LBD-fused human FXR in HEK293 cells incubated for 30 min by envision plate reader method relative to GW2064; assay type: cell-based; conditions: filed as agonist
T1 sequence (whole entry): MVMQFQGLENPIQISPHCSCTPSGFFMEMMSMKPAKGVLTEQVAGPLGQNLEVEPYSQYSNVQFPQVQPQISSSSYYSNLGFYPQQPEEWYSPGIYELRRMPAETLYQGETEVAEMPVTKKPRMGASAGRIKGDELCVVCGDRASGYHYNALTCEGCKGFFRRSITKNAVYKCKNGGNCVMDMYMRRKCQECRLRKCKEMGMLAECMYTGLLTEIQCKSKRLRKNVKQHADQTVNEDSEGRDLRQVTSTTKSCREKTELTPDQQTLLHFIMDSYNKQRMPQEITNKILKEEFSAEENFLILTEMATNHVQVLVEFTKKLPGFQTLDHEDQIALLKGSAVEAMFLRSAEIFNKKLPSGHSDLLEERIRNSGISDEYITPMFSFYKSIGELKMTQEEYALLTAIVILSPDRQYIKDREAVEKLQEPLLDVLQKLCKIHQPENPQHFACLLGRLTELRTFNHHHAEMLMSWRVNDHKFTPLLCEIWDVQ

[2] = biological target: T2, Bile acid receptor (Mus musculus) (UniProt Q60641); experiment: Agonist activity at LBD-fused mouse FXR in HEK293 cells incubated for 30 min by envision plate reader method relative to GW2064; assay type: cell-based; conditions: filed as agonist
T2 sequence (whole entry): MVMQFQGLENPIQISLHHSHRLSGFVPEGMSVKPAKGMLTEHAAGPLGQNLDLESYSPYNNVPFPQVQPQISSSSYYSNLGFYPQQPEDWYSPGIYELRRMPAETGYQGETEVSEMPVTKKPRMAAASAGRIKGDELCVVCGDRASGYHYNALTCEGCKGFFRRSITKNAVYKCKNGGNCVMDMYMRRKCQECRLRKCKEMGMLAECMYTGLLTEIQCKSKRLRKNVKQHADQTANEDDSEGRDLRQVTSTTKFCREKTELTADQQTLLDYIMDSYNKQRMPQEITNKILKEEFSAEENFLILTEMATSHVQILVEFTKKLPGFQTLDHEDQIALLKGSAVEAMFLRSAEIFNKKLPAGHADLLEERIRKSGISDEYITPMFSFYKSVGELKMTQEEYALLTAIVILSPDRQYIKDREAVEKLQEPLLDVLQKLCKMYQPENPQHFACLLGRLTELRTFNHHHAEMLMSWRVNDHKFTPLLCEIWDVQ

Bile acid receptor [3] = biological target: T3, Bile acid receptor (Homo sapiens, UniProt Q96RI1); experiment: Agonist activity at Gal4-fused human FXR in HEK293 cells incubated for 15 min by luciferase reporter assay; assay type: cell-based
T3 sequence (Q96RI1 whole entry): T1 sequence (whole entry)

Bile acid receptor [4] = biological target: T3, Bile acid receptor; experiment: Agonist activity at LBD fused human FXR in HEK293 cells incubated for 30 min by envision plate reader method; assay type: cell-based
Bile acid receptor [5] = biological target: T4, Bile acid receptor (Mus musculus, UniProt Q60641); experiment: Agonist activity at mouse LBD fused FXR in HEK293 cells incubated for 30 min by envision plate reader method; assay type: cell-based
T4 sequence (Q60641 whole entry): T2 sequence (whole entry)

[6] = Metabolic stability in human liver microsome assessed as parent compound remaining at […] measured after 10 mins; assay type: ADME; conditions: liver microsomes, read-out: Stability
[7] = Metabolic stability in mouse liver microsome assessed as parent compound remaining at […] measured after 10 mins; assay type: ADME; conditions: liver microsomes, read-out: Stability
Cytochrome P450 2C9 [8] = biological target: T5, Cytochrome P450 2C9 (Homo sapiens, UniProt P11712); experiment: Inhibition of recombinant CYP2C9 (unknown origin) using fluorogenic substrate preincubated for 15 min followed by NADPH addition measured after 2 hrs by fluorescence method; assay type: ADME
T5 sequence (P11712 whole entry): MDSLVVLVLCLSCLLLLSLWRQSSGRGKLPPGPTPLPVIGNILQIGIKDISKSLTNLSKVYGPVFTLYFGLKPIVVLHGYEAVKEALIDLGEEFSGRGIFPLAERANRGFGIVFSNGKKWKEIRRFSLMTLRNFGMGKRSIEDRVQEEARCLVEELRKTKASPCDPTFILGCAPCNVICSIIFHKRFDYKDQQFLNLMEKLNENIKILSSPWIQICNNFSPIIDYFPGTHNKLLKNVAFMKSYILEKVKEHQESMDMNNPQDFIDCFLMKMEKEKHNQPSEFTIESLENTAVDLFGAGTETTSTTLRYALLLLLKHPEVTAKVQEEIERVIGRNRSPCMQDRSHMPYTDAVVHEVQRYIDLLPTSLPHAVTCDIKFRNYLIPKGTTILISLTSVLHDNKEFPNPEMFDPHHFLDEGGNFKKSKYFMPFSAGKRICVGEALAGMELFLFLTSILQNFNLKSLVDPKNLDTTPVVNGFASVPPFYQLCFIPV

[9] = Clearance in C57BL6 mouse at 1 mg/kg, iv; assay type: ADME, organism-based; conditions: in vivo
[10] = Oral bioavailability in C57BL6 mouse at 5 mg/kg; assay type: ADME, organism-based; conditions: in vivo
[11] = AUC (total) in Sprague-Dawley rat at 2 mg/kg, po; assay type: ADME, organism-based; design: dose 2 mg/kg, route po; conditions: in vivo
[12] = Oral bioavailability in Sprague-Dawley rat at 2 mg/kg; assay type: ADME, organism-based; conditions: in vivo
Mus musculus = experiment: Antifibrotic activity against bile duct ligation-induced liver cholestasis C57BL/6NTac mouse model assessed as reduction in hydroxyproline level in liver administered orally as single dose for 9 days and measured after 24 hrs post-last dose by picrosirius red staining method; assay type: functional, organism-based; conditions: dose 0.3-10 mg/kg, route po, time 9.0 day, DDE = dose-dependent effect
Cytochrome P450 3A4 = Cytochrome P450 3A4 (Homo sapiens, UniProt P08684); experiment: Inhibition of CYP3A4 in human liver microsomes using fluorogenic substrate preincubated for 15 min followed by NADPH addition measured after 2 hrs by fluorescence based assay; assay type: ADME, Microsome
Cytochrome P450 3A4, sequence (P08684 whole entry): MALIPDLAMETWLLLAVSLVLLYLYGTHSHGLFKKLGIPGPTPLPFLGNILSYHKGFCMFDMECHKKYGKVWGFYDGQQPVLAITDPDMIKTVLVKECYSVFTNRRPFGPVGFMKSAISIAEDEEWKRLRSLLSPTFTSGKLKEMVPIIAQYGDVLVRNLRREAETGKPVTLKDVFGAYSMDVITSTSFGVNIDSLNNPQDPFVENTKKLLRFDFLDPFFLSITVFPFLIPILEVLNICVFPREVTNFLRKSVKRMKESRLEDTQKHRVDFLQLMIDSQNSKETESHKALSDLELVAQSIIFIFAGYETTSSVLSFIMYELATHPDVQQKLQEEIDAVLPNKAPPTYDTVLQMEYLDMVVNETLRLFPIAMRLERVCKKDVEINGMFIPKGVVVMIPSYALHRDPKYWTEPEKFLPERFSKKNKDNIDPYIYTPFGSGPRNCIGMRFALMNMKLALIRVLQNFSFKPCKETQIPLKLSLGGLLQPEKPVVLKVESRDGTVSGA

Cytochrome P450 2C19 = Cytochrome P450 2C19 (Homo sapiens, UniProt P33261); experiment: Inhibition of CYP2C19 in human liver microsomes using fluorogenic substrate preincubated for 15 min followed by NADPH addition measured after 2 hrs by fluorescence based assay; assay type: ADME, Microsome
Cytochrome P450 2C19, sequence (P33261 whole entry): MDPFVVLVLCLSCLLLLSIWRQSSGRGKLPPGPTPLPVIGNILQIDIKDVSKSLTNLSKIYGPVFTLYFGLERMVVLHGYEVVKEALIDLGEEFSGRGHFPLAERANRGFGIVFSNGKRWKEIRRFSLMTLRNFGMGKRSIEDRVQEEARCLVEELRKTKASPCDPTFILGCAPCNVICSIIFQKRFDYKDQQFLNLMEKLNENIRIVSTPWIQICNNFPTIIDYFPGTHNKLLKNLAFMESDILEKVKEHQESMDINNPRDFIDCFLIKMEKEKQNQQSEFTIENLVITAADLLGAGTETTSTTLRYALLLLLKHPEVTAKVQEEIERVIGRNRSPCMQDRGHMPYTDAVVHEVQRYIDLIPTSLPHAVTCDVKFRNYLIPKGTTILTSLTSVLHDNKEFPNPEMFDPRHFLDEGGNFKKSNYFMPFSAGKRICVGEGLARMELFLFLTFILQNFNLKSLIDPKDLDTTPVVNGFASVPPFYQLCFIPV

Cytochrome P450 2D6 = Cytochrome P450 2D6 (Homo sapiens, UniProt P10635); experiment: Inhibition of CYP2D6 in human liver microsomes using fluorogenic substrate preincubated for 15 min followed by NADPH addition measured after 2 hrs by fluorescence based assay; assay type: ADME, Microsome
Cytochrome P450 2D6, sequence (P10635 whole entry): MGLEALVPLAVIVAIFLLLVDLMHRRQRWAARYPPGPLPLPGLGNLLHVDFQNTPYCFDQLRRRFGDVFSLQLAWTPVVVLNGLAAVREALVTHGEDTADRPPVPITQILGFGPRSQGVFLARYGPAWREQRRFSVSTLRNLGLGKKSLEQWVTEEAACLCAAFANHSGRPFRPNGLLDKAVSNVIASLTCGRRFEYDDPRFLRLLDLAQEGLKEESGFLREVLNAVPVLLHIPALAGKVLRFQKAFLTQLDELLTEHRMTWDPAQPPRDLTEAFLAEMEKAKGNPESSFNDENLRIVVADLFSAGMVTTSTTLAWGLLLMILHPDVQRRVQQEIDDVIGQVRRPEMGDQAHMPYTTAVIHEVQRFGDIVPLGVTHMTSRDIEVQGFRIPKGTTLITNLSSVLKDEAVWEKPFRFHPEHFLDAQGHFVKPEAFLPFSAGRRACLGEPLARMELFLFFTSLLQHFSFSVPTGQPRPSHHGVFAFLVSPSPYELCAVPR

Cytochrome P450 2C9 [13] = biological target: T5, Cytochrome P450 2C9; experiment: Inhibition of CYP2C9 in human liver microsomes using fluorogenic substrate preincubated for 15 min followed by NADPH addition measured after 2 hrs by fluorescence based assay; assay type: ADME, Microsome
Bile salt export pump = Bile salt export pump (Homo sapiens, UniProt O95342); experiment: Inhibition of BSEP (unknown origin)
Bile salt export pump, sequence (O95342 whole entry): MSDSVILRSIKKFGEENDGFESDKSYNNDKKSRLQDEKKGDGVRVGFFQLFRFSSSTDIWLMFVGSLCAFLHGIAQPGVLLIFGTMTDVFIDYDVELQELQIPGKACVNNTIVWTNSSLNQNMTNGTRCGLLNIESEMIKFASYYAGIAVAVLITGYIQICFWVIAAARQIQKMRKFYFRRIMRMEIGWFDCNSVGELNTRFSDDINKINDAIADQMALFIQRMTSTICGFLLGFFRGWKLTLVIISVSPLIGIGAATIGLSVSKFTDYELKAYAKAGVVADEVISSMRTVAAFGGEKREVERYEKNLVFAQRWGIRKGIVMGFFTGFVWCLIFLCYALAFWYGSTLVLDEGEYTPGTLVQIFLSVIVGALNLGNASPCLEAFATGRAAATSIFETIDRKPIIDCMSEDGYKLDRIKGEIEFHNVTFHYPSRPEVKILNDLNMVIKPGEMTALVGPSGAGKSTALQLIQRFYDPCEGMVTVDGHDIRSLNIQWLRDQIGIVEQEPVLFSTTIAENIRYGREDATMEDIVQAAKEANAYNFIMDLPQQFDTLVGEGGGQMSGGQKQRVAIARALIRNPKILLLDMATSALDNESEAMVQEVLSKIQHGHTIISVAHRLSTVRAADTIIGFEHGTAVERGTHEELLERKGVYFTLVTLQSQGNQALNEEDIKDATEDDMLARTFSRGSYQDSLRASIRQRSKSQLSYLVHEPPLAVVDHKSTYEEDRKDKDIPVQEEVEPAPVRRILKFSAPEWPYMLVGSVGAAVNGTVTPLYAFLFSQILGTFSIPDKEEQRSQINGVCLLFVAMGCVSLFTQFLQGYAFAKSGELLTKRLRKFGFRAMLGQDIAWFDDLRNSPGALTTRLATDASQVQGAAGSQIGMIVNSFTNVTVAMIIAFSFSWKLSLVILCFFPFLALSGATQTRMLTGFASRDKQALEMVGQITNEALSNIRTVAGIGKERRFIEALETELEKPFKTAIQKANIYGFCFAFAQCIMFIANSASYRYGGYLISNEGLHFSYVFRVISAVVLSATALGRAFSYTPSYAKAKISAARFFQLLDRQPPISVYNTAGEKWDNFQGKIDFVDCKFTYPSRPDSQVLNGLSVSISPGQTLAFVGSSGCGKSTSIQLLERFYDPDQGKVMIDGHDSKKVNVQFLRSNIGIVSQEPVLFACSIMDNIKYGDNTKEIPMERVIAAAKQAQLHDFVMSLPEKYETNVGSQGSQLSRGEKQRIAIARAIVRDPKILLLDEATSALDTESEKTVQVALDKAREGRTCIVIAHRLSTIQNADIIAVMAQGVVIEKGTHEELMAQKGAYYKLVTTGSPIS

[14] = biological target: Voltage-gated inwardly rectifying potassium channel KCNH2 (Homo sapiens, UniProt Q12809); experiment: Inhibition of hERG by patch clamp assay; assay type: toxicity
Voltage-gated inwardly rectifying potassium channel KCNH2, sequence (Q12809 whole entry): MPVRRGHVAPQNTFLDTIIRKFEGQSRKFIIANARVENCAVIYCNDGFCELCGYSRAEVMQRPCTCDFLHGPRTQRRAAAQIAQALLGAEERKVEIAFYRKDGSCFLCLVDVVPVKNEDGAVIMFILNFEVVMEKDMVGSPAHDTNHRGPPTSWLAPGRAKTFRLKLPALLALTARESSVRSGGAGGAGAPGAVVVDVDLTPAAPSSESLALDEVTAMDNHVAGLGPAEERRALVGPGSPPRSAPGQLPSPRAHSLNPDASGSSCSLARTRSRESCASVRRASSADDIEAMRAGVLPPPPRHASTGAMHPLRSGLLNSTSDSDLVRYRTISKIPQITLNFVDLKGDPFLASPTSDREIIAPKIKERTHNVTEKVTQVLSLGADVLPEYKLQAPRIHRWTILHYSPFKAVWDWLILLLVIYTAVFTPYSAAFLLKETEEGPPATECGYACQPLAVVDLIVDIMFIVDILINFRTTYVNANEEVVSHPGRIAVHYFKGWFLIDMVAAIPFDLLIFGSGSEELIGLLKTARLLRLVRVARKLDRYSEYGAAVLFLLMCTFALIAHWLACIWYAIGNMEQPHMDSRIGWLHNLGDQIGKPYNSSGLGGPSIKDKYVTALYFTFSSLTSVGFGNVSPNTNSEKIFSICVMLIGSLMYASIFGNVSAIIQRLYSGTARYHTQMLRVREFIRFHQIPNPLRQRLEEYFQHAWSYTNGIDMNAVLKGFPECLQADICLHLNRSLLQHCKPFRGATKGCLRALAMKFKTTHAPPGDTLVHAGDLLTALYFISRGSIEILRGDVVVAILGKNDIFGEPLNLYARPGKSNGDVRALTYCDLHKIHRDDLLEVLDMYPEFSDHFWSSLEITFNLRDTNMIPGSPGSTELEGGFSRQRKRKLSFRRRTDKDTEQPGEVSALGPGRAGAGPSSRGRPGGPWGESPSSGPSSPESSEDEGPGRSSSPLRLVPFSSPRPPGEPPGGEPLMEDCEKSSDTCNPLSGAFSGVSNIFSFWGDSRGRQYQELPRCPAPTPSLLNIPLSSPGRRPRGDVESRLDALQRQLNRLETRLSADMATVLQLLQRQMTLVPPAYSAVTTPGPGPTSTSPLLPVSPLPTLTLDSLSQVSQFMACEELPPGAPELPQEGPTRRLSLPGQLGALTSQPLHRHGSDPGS

[15] = Genotoxicity in Salmonella typhimurium by Ames test; assay type: toxicity; conditions: salmonella enterica subsp. enterica serovar typhimurium
[16] = tested on: Bile acid receptor (Homo sapiens); experiment: Agonist activity at human FXR expressed in HEK293 cells coexpressing IBABP relative to GW2064; conditions: filed as agonist
[17] = tested on: Bile acid receptor (Homo sapiens); experiment: Agonist activity at human FXR expressed in HEK293 cells coexpressing human FGF19 incubated for 24 hrs by ELISA analysis relative to GW2064; conditions: filed as agonist

Emax [1]: 189%
Emax [2]: 601%
EC50 (Bile acid receptor [3]): 0.034 µM
EC50 (Bile acid receptor [4]): 0.042 µM
EC50 (Bile acid receptor [5]): 0.014 µM
remaining at 10 min [6]: 100%
remaining at 10 min [7]: 90%
IC50 (Cytochrome P450 2C9 [8]): 5 µM
clearance [9]: 1.6 mL/min/kg
bioavailability [10]: 69%
AUC [11]: 5.8 µM·h
bioavailability [12]: 40%
IC50 (Cytochrome P450 3A4): > 20 µM
IC50 (Cytochrome P450 2C19): > 20 µM
IC50 (Cytochrome P450 2D6): > 20 µM
IC50 (Cytochrome P450 2C9 [13]): 8 µM
Emax [16]: 80%
Emax [17]: 89%
SMILES: CC(C)(O)c1ccc(-c2cccc(N(CC34CCC(c5noc(C(C)(C)F)n5)(CC3)CC4)C(=O)[C@H]3C[C@](O)(C(F)(F)F)C3)c2)cc1
Activity (Mus musculus): Dde
IC50 (Bile salt export pump): 1.4 µM
IC50 [14]: 4.5 µM
Activity [15]: Non-Toxic
